According to ChEMBL document CHEMBL1135930, “Identification of nonpeptidic urotensin II receptor antagonists by virtual screening based on a pharmacophore model derived from structure-activity relationships and nuclear magnetic resonance studies on urotensin II” (J Med Chem, 2002):
Active and inactive are the calls of the source. No cut-off for these calls is given here. Positions of bridges follow the written chain, without caps; N, C: chain ends. Residues, ends and D or L forms follow the SMILES beside them.

Molecular target: T1, Urotensin-2 receptor (Homo sapiens) (UniProt Q9UKP6)
T1 sequence (whole entry): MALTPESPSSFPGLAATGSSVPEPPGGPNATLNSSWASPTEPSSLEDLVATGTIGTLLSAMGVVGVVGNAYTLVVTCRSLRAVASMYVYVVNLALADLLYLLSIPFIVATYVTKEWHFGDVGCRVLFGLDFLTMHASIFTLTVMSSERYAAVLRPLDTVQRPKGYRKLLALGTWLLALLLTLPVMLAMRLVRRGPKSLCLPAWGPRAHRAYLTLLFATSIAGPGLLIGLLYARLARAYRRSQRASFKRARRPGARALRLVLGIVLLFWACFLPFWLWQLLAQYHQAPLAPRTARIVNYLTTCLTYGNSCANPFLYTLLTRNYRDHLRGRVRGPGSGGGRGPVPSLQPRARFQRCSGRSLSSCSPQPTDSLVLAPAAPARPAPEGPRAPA
Details: CHO

Row | NA | Compound
1 | inactive | CC(C)[C@H](NC(=O)[C@H](CS)NC(=O)[C@H](CCCCN)NC(=O)[C@H](Cc1c[nH]c2ccccc12)NC(=O)[C@H](Cc1ccccc1)NC(=O)[C@H](CS)NC(=O)[C@H](CC(=O)O)NC(=O)[C@H]1CCCN1C(=O)[C@@H](NC(=O)[C@@H](N)CCC(=O)O)[C@@H](C)O)C(=O)O
2 | inactive | CC(C)[C@H](NC(=O)[C@H](CS)NC(=O)[C@H](Cc1ccc(O)cc1)NC(=O)[C@H](Cc1c[nH]c2ccccc12)NC(=O)[C@H](Cc1ccccc1)NC(=O)[C@H](CS)NC(=O)[C@H](CC(=O)O)NC(=O)[C@H]1CCCN1C(=O)[C@@H](NC(=O)[C@@H](N)CCC(=O)O)[C@@H](C)O)C(=O)O
3 | inactive | CC(C)[C@H](NC(=O)[C@H](CS)NC(=O)[C@@H](Cc1ccc(O)cc1)NC(=O)[C@H](CCCCN)NC(=O)[C@H](Cc1c[nH]c2ccccc12)NC(=O)[C@H](Cc1ccccc1)NC(=O)[C@H](CS)NC(=O)[C@H](CC(=O)O)NC(=O)[C@H]1CCCN1C(=O)[C@@H](NC(=O)[C@@H](N)CCC(=O)O)[C@@H](C)O)C(=O)O

Molecular target: T2, Urotensin-2 receptor (Homo sapiens, UniProt Q9UKP6)
T2 sequence (Q9UKP6 whole entry): T1 sequence (whole entry)
Test: Mobilization of intracellular calcium in CHO cells transiently transfected with human Urotensin 2 receptor
Format: functional, cell-based
Details: not given

Row | EC50 | Compound
4 | 2.3 nM | NCCCC[C@H](NC(=O)[C@H](Cc1c[nH]c2ccccc12)NC(=O)[C@H](Cc1ccccc1)NC(=O)[C@@H](N)CS)C(=O)N[C@@H](Cc1ccc(O)cc1)C(=O)N[C@@H](CS)C(N)=O (H-CFWKYC-NH2)
5 | 1.8 nM | CC(C)[C@H](NC(=O)[C@H](CS)NC(=O)[C@H](Cc1ccc(O)cc1)NC(=O)[C@H](CCCCN)NC(=O)[C@H](Cc1c[nH]c2ccccc12)NC(=O)[C@H](Cc1ccccc1)NC(=O)[C@@H](N)CS)C(=O)O (H-CFWKYCV-OH)
6 | 1.8 nM | CC(C)[C@H](NC(=O)[C@H](CS)NC(=O)[C@H](Cc1ccc(O)cc1)NC(=O)[C@H](CCCCN)NC(=O)[C@H](Cc1c[nH]c2ccccc12)NC(=O)[C@H](Cc1ccccc1)NC(=O)[C@H](CS)NC(=O)[C@H](CC(=O)O)NC(=O)[C@@H]1CCCN1C(=O)[C@@H](NC(=O)[C@H](C)N)[C@@H](C)O)C(=O)O
7 | 2.7 nM | CC(C)[C@H](NC(=O)[C@H](CS)NC(=O)[C@H](Cc1ccc(O)cc1)NC(=O)[C@H](CCCCN)NC(=O)[C@H](Cc1c[nH]c2ccccc12)NC(=O)[C@H](Cc1ccccc1)NC(=O)[C@H](CS)NC(=O)[C@H](C)NC(=O)[C@@H]1CCCN1C(=O)[C@@H](NC(=O)[C@@H](N)CCC(=O)O)[C@@H](C)O)C(=O)O
8 | 233 nM | CC(C)[C@H](NC(=O)[C@H](CS)NC(=O)[C@H](Cc1ccc(O)cc1)NC(=O)[C@H](CCCCN)NC(=O)[C@H](Cc1c[nH]c2ccccc12)NC(=O)[C@H](Cc1ccccc1)NC(=O)[C@H](C)NC(=O)[C@H](CC(=O)O)NC(=O)[C@@H]1CCCN1C(=O)[C@@H](NC(=O)[C@@H](N)CCC(=O)O)[C@@H](C)O)C(=O)O
9 | 3 nM | CC(C)[C@H](NC(=O)[C@H](CS)NC(=O)[C@H](Cc1ccc(O)cc1)NC(=O)[C@H](CCCCN)NC(=O)[C@H](Cc1c[nH]c2ccccc12)NC(=O)[C@H](Cc1ccccc1)NC(=O)[C@H](CS)NC(=O)[C@@H](N)CC(=O)O)C(=O)O (H-DCFWKYCV-OH)
10 | 1.9 nM | CC(C)[C@H](NC(=O)[C@H](CS)NC(=O)[C@H](Cc1ccc(O)cc1)NC(=O)[C@H](CCCCN)NC(=O)[C@H](Cc1c[nH]c2ccccc12)NC(=O)[C@H](Cc1ccccc1)NC(=O)[C@H](CS)NC(=O)[C@H](CC(=O)O)NC(=O)[C@H](C)NC(=O)[C@@H](NC(=O)[C@@H](N)CCC(=O)O)[C@@H](C)O)C(=O)O (H-ETADCFWKYCV-OH)
11 | 3.3 nM | CC(C)[C@H](NC(=O)[C@H](CS)NC(=O)[C@H](Cc1ccc(O)cc1)NC(=O)[C@H](CCCCN)NC(=O)[C@H](Cc1c[nH]c2ccccc12)NC(=O)[C@H](Cc1ccccc1)NC(=O)[C@H](CS)NC(=O)[C@H](CC(=O)O)NC(=O)[C@@H]1CCCN1C(=O)[C@H](C)NC(=O)[C@@H](N)CCC(=O)O)C(=O)O

Same assay, conditions: cho

Row | EC50 | Compound
12 | 5.7 nM | CC(C)[C@H](NC(=O)[C@@H]1CSSC[C@H](NC(=O)[C@H](CC(=O)O)NC(=O)[C@@H]2CCCN2C(=O)[C@@H](NC(=O)[C@@H](N)CCC(=O)O)[C@@H](C)O)C(=O)N[C@@H](C)C(=O)N[C@@H](Cc2c[nH]c3ccccc23)C(=O)N[C@@H](CCCCN)C(=O)N[C@@H](Cc2ccc(O)cc2)C(=O)N1)C(=O)O (H-ETPDCAWKYCV-OH; disulfide 5-10)
13 | 3.6 nM | CC(C)[C@H](NC(=O)[C@@H]1CSSC[C@H](NC(=O)[C@H](CC(=O)O)NC(=O)[C@@H]2CCCN2)C(=O)N[C@@H](Cc2ccccc2)C(=O)N[C@@H](Cc2c[nH]c3ccccc23)C(=O)N[C@@H](CCCCN)C(=O)N[C@@H](Cc2ccc(O)cc2)C(=O)N1)C(=O)O (H-PDCFWKYCV-OH; disulfide 3-8)
14 | 53 nM | CC(C)[C@H](NC(=O)[C@@H]1CSSC[C@H](NC(=O)[C@H](CC(=O)O)NC(=O)[C@@H]2CCCN2C(=O)[C@@H](NC(=O)[C@@H](N)CCC(=O)O)[C@@H](C)O)C(=O)N[C@@H](Cc2c[nH]c3ccccc23)C(=O)N[C@@H](CCCCN)C(=O)N[C@@H](Cc2ccc(O)cc2)C(=O)N1)C(=O)O (H-ETPDCWKYCV-OH; disulfide 5-9)
15 | 14800 nM | CC(C)[C@H](NC(=O)[C@@H]1CSSC[C@H](NC(=O)[C@H](CC(=O)O)NC(=O)[C@@H]2CCCN2C(=O)[C@@H](NC(=O)[C@@H](N)CCC(=O)O)[C@@H](C)O)C(=O)N[C@@H](Cc2ccccc2)C(=O)N[C@@H](Cc2c[nH]c3ccccc23)C(=O)N[C@@H](C)C(=O)N[C@@H](Cc2ccc(O)cc2)C(=O)N1)C(=O)O (H-ETPDCFWAYCV-OH; disulfide 5-10)
16 | 193 nM | CC(C)[C@H](NC(=O)[C@@H]1CSSC[C@H](NC(=O)[C@H](CC(=O)O)NC(=O)[C@@H]2CCCN2C(=O)[C@@H](NC(=O)[C@@H](N)CCC(=O)O)[C@@H](C)O)C(=O)N[C@@H](Cc2ccccc2)C(=O)N[C@@H](Cc2c[nH]c3ccccc23)C(=O)N[C@@H](CCCCN)C(=O)N[C@@H](C)C(=O)N1)C(=O)O (H-ETPDCFWKACV-OH; disulfide 5-10)
17 | 1.8 nM | C[C@@H](O)[C@H](NC(=O)[C@@H](N)CCC(=O)O)C(=O)N1CCC[C@H]1C(=O)N[C@@H](CC(=O)O)C(=O)N[C@H]1CSSC[C@@H](C(=O)O)NC(=O)[C@H](Cc2ccc(O)cc2)NC(=O)[C@H](CCCCN)NC(=O)[C@H](Cc2c[nH]c3ccccc23)NC(=O)[C@H](Cc2ccccc2)NC1=O (H-ETPDCFWKYC-OH; disulfide 5-10)
18 | 2.4 nM | CC(C)[C@H](NC(=O)[C@@H]1CSSC[C@H](NC(=O)[C@H](CC(=O)O)NC(=O)[C@@H]2CCCN2C(=O)[C@@H](N)[C@@H](C)O)C(=O)N[C@@H](Cc2ccccc2)C(=O)N[C@@H](Cc2c[nH]c3ccccc23)C(=O)N[C@@H](CCCCN)C(=O)N[C@@H](Cc2ccc(O)cc2)C(=O)N1)C(=O)O (H-TPDCFWKYCV-OH; disulfide 4-9)
19 | > 10000 nM | CC(C)[C@H](NC(=O)[C@@H]1CSSC[C@H](NC(=O)[C@H](CC(=O)O)NC(=O)[C@@H]2CCCN2C(=O)[C@@H](NC(=O)[C@@H](N)CCC(=O)O)[C@@H](C)O)C(=O)N[C@@H](Cc2ccccc2)C(=O)N[C@@H](CCCCN)C(=O)N[C@@H](Cc2ccc(O)cc2)C(=O)N1)C(=O)O (H-ETPDCFKYCV-OH; disulfide 5-9)
20 | 3.2 nM | C[C@H](NC(=O)[C@@H]1CSSC[C@H](NC(=O)[C@H](CC(=O)O)NC(=O)[C@@H]2CCCN2C(=O)[C@@H](NC(=O)[C@@H](N)CCC(=O)O)[C@@H](C)O)C(=O)N[C@@H](Cc2ccccc2)C(=O)N[C@@H](Cc2c[nH]c3ccccc23)C(=O)N[C@@H](CCCCN)C(=O)N[C@@H](Cc2ccc(O)cc2)C(=O)N1)C(=O)O (H-ETPDCFWKYCA-OH; disulfide 5-10)
21 | 1300 nM | CC(C)[C@H](NC(=O)[C@@H]1CSSC[C@H](NC(=O)[C@H](CC(=O)O)NC(=O)[C@@H]2CCCN2C(=O)[C@@H](NC(=O)[C@@H](N)CCC(=O)O)[C@@H](C)O)C(=O)N[C@@H](Cc2ccccc2)C(=O)N[C@@H](C)C(=O)N[C@@H](CCCCN)C(=O)N[C@@H](Cc2ccc(O)cc2)C(=O)N1)C(=O)O (H-ETPDCFAKYCV-OH; disulfide 5-10)
